Results taken from patent publication US10265277B2, “Composition of Olivetol and method of use to reduce or inhibit the effects of tetrahydrocannabinol in the human body” (Undoo, LLC, priority 2015, dated 2019).

System: cannabis high (psychotropic effects of THC)
Assay: real-life, non-clinical trials by volunteers: oral Olivetol softgel taken at peak of cannabis high, self-reported effects
Format: in vivo, human
Conditions: consumed before or after THC; general statement of the inventors
Protocol: A number of real-life, non-clinical trials have been performed by volunteers, to test the effects of the consumption of embodiments of the present invention, the conditions and results of which are described as follows. All tests were performed in “real life,” rather than clinical conditions. Various methods of consumption of cannabis were used, such as consumption of edibles, inhalation of cannabis smoke, or inhalation of vapor, depending upon the volunteer's preference. Some subjects reported their pre-consumption mood, pain level, etc., as well as their level of experience with consumption of cannabis. After sufficient exposure to cannabis, each subject indicated when their euphoria or “high” had reached a high level or a peak. Then, the subject took one or more oral doses of an embodiment of the present invention, containing 30 mg of Olivetol combined with edible oil in a “softgel” pill. A timer was started and the subject then reported when they felt an awareness of a decrease or reduction in their euphoria or other cannabis effects, as well as their subjective feelings, mood, pain level or other observations, until they self-reported that their cannabis effects were concluded. […]

CCCCCc1cc(O)cc(O)c1 [Olivetol, 5-pentylresorcinol]
effect of Olivetol consumption on psychotropic effects of THC: significantly reduce the psychotropic effects of THC ingestion
